Experimental data taken from ChEMBL document CHEMBL4177611, “Discovery of aminocyclohexene analogues as selective and orally bioavailable hNav1.7 inhibitors for analgesia” (Bioorg Med Chem Lett, 2017).

Key:
[1] = test system: Rattus norvegicus; experiment: Unbound AUC (0 to last) in Sprague-Dawley rat at 10 mg/kg administered as single dose via oral gavage by LC-MS/MS analysis; assay type: ADME, organism-based; conditions: in vivo
[2] = Half life in Sprague-Dawley rat at 3 mg/kg administered as single iv bolus by LC-MS/MS analysis; assay type: ADME, organism-based; conditions: in vivo
[3] = Plasma concentration in Sprague-Dawley rat spinal nerve ligation model at 30 mg/kg administered as single dose via oral gavage measured after 4 hrs by LC-MS/MS analysis; assay type: ADME, organism-based
[4] = Intrinsic clearance in rat liver microsomes at 1 uM after 60 mins in presence of NADPH by LC-MS/MS analysis; assay type: ADME, microsome; conditions: read-out: CLH
[5] = molecular target: Sodium channel protein type 5 subunit alpha (Homo sapiens, UniProt Q14524); experiment: Inhibition of human Nav1.5 expressed in HEK293 cells at -120 mV holding potential incubated over 5 mins measured at 15 secs interval by Qpatch clamp assay; assay type: cell-based
[6] = AUC (0 to last) in Sprague-Dawley rat at 10 mg/kg administered as single dose via oral gavage by LC-MS/MS analysis; assay type: ADME, organism-based; parameters: dose 10 mg/kg, route oral, time 0 - last; conditions: in vivo
[7] = Plasma concentration in Sprague-Dawley rat spinal nerve ligation model at 30 mg/kg administered as single dose via oral gavage measured after 2 hrs by LC-MS/MS analysis; assay type: ADME, organism-based
[8] = molecular target: Cytochrome P450 3A4 (Homo sapiens, UniProt P08684)
[9] = Plasma concentration in Sprague-Dawley rat spinal nerve ligation model at 100 mg/kg administered as single dose via oral gavage measured after 1 hr by LC-MS/MS analysis; assay type: ADME, organism-based
[10] = Unbound plasma concentration in Sprague-Dawley rat spinal nerve ligation model at 100 mg/kg administered as single dose via oral gavage measured after 2 hrs by LC-MS/MS analysis; assay type: ADME, organism-based; conditions: in vivo
[11] = Unbound plasma concentration in Sprague-Dawley rat spinal nerve ligation model at 100 mg/kg administered as single dose via oral gavage measured after 4 hrs by LC-MS/MS analysis; assay type: ADME, organism-based; conditions: in vivo
[12] = Unbound plasma concentration in Sprague-Dawley rat spinal nerve ligation model at 30 mg/kg administered as single dose via oral gavage measured after 2 hrs by LC-MS/MS analysis; assay type: ADME, organism-based; conditions: in vivo
[13] = Tmax in Sprague-Dawley rat at 10 mg/kg administered as single dose via oral gavage by LC-MS/MS analysis; assay type: ADME, organism-based; conditions: in vivo
[14] = AUC in Sprague-Dawley rat at 10 mg/kg administered as single dose via oral gavage by LC-MS/MS analysis; assay type: ADME, organism-based; conditions: in vivo
[15] = AUC (0 to last) in Sprague-Dawley rat at 3 mg/kg administered as single iv bolus by LC-MS/MS analysis; assay type: ADME, organism-based; parameters: dose 3 mg/kg, route intravenous, time 0 - last; conditions: in vivo
[16] = Plasma concentration in Sprague-Dawley rat spinal nerve ligation model at 30 mg/kg administered as single dose via oral gavage measured after 1 hr by LC-MS/MS analysis; assay type: ADME, organism-based
[17] = Clearance in Sprague-Dawley rat administered as single iv bolus by LC-MS/MS analysis; assay type: ADME, organism-based; conditions: in vivo
[18] = Metabolic stability in dog liver microsomes assessed as parent compound remaining at 10 uM measured up to 60 mins in presence of NADPH by LC-MS analysis; assay type: ADME, Canis lupus familiaris, microsome; conditions: read-out: Stability
[19] = physchem; conditions: buffer, pH 7.4
[20] = Drug metabolism in Sprague-Dawley rat dorsal root ganglion assessed as 4-(((1R,6R)-6-amino-2-(4-fluorophenyl)cyclohex-2-enyl)methoxy)-5-chloro-2-fluoro-N-(thiazol-4-yl)benzenesulfonamide formation at 100 mg/kg, ig measured after 1.5 hrs by LC-MS/MS analysis; assay type: ADME, organism-based; conditions: in vivo, po
[21] = molecular target: Sodium channel protein type 9 subunit alpha (Homo sapiens, UniProt Q15858); experiment: Inhibition of human Nav1.7 expressed in CHO-K1 cells at -120 mV holding potential incubated over 5 mins measured at 15 secs interval by Qpatch clamp assay; assay type: cell-based
[22] = Intrinsic clearance in human liver microsomes at 1 uM after 60 mins in presence of NADPH by LC-MS/MS analysis; assay type: ADME, microsome; conditions: read-out: CLH
[23] = Metabolic stability in rat liver microsomes assessed as parent compound remaining at 10 uM measured up to 60 mins in presence of NADPH by LC-MS analysis; assay type: ADME, microsome; conditions: read-out: Stability
[24] = Drug metabolism in human liver microsomes assessed as dealkylation by measuring M1 metabolite formation at 10 uM measured up to 60 mins in presence of NADPH by LC-MS analysis relative to total metabolite peak area; assay type: ADME, microsome; conditions: 1 h
[25] = Clearance in Sprague-Dawley rat at 3 mg/kg administered as single iv bolus by LC-MS/MS analysis; assay type: ADME, organism-based; conditions: in vivo
[26] = Drug metabolism in po dosed rat plasma assessed as deethylation by measuring 4-(((1R,6R)-6-amino-2-(4-fluorophenyl)cyclohex-2-enyl)methoxy)-5-chloro-2-fluoro-N-(thiazol-4-yl)benzenesulfonamide metabolite formation; assay type: ADME, organism-based; conditions: in vivo
[27] = molecular target: Voltage-gated inwardly rectifying potassium channel KCNH2 (Homo sapiens, UniProt Q12809)
[28] = molecular target: Cytochrome P450 2C19 (Homo sapiens, UniProt P33261)
[29] = molecular target: Cytochrome P450 2C9 (Homo sapiens, UniProt P11712)
[30] = molecular target: T1, Cytochrome P450 1A2 (Homo sapiens, UniProt P05177)
T1 sequence (P05177 whole entry): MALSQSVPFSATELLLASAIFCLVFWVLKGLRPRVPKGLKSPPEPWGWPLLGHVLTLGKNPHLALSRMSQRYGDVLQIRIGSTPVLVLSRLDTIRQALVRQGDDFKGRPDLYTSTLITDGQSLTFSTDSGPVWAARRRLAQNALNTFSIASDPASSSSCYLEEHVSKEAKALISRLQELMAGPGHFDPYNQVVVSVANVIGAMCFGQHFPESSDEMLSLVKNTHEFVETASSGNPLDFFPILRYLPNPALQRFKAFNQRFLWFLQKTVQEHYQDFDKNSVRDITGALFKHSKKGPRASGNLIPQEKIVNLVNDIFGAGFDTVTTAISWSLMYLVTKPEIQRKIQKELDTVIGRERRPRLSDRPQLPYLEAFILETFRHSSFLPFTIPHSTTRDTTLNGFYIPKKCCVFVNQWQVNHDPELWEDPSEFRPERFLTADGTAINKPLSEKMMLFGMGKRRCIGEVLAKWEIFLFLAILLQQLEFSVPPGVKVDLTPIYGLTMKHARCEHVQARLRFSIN

[31] = Unbound plasma concentration in Sprague-Dawley rat spinal nerve ligation model at 100 mg/kg administered as single dose via oral gavage measured after 1 hr by LC-MS/MS analysis; assay type: ADME, organism-based; conditions: in vivo
[32] = Half life in Sprague-Dawley rat at 10 mg/kg administered as single dose via oral gavage by LC-MS/MS analysis; assay type: ADME, organism-based; conditions: in vivo
[33] = Initial plasma concentration in Sprague-Dawley rat at 3 mg/kg administered as single iv bolus by LC-MS/MS analysis; assay type: ADME, organism-based
[34] = Fraction unbound in human plasma at 2 uM after 4 hrs by LC-MS/MS analysis; assay type: ADME, cell-free

Sequence of Cytochrome P450 2C9 (P11712 whole entry): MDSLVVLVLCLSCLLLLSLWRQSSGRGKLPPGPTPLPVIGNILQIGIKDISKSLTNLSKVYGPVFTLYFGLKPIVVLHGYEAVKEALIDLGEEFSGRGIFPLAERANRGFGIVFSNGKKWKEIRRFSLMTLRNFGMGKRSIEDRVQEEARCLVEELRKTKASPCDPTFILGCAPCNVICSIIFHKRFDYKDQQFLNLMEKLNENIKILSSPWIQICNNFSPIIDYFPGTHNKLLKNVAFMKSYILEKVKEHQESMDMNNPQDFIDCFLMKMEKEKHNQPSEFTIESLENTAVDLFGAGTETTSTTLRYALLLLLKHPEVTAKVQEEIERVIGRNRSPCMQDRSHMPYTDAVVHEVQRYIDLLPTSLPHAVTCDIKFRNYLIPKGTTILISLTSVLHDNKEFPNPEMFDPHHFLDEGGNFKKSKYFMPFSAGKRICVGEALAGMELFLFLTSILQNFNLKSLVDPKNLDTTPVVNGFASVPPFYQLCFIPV
Sequence of Cytochrome P450 3A4 (P08684 whole entry): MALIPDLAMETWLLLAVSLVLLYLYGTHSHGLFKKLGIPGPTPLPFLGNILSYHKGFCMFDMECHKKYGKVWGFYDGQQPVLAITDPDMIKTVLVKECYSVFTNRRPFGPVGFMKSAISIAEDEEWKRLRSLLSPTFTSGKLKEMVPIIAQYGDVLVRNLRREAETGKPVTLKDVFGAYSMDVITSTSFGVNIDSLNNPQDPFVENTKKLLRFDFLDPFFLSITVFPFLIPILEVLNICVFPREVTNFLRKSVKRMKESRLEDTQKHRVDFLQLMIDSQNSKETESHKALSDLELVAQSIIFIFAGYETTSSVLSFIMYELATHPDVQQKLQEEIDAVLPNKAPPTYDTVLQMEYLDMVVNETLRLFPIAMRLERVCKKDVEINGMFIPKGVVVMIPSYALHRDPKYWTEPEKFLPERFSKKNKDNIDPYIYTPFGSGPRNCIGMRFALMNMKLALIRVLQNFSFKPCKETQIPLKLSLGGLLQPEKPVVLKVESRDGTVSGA
Sequence of Cytochrome P450 2C19 (P33261 whole entry): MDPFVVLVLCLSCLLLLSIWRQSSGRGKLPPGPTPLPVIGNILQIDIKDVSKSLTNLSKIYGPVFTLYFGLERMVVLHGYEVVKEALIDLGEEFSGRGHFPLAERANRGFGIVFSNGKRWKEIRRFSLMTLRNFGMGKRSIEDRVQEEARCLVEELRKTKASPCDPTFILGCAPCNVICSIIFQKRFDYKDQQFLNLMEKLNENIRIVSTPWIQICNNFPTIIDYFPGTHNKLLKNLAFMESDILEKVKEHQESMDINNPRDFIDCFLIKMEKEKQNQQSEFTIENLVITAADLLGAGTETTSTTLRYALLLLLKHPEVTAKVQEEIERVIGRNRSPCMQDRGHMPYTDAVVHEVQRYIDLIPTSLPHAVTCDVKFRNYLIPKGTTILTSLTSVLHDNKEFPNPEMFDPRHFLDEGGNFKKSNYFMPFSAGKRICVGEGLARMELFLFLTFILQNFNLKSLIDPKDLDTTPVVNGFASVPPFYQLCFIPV
Sequence of Sodium channel protein type 5 subunit alpha (Q14524 whole entry): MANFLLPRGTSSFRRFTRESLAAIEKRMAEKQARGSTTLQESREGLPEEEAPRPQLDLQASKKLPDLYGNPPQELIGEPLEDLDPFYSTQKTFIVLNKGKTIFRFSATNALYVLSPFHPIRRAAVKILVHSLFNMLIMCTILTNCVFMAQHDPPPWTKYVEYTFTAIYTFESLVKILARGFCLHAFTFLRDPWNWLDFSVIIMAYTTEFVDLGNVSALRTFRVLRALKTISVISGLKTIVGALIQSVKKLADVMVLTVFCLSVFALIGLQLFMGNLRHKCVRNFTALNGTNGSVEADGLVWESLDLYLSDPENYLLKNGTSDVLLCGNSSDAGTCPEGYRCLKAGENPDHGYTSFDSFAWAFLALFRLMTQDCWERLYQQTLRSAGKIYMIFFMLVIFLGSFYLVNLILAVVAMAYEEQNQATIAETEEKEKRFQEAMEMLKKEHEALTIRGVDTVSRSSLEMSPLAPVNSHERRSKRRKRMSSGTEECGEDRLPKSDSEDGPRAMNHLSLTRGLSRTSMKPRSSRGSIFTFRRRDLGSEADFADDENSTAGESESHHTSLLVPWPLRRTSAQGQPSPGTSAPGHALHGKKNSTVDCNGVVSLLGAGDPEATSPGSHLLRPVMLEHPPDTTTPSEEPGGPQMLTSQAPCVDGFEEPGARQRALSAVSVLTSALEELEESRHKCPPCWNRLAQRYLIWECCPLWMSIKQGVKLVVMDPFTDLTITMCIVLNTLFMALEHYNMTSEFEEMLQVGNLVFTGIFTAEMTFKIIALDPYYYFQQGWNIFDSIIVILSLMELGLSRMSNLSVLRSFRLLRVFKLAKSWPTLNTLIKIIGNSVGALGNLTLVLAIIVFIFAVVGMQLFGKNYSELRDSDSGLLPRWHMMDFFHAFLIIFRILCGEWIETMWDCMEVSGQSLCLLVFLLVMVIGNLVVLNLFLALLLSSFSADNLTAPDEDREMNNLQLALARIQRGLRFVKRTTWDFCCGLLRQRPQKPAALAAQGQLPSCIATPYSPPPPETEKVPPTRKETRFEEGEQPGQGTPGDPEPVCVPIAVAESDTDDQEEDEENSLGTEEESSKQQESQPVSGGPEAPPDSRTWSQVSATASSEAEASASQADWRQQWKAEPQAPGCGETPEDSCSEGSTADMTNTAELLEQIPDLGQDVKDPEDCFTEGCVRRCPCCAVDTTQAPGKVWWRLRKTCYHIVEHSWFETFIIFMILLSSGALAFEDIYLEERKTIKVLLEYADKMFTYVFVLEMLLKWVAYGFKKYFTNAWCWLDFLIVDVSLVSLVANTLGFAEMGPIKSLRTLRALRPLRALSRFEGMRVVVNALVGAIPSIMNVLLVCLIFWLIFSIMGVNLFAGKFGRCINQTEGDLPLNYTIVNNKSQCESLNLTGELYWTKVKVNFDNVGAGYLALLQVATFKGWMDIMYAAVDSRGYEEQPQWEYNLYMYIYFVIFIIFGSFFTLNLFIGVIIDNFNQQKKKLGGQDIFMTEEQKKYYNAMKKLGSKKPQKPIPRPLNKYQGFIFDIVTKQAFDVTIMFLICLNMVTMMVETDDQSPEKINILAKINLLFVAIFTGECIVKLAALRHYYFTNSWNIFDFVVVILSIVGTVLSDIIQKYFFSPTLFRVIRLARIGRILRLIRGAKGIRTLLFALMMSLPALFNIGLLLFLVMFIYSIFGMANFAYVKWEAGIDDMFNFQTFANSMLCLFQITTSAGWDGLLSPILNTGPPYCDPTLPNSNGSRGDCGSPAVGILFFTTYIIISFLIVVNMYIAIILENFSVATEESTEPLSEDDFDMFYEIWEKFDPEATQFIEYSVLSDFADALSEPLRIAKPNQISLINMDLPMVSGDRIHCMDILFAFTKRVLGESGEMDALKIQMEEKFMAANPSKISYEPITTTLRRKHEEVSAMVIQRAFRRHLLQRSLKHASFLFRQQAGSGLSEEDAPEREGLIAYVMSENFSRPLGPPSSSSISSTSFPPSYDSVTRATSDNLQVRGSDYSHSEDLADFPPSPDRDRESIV
Sequence of Voltage-gated inwardly rectifying potassium channel KCNH2 (Q12809 whole entry): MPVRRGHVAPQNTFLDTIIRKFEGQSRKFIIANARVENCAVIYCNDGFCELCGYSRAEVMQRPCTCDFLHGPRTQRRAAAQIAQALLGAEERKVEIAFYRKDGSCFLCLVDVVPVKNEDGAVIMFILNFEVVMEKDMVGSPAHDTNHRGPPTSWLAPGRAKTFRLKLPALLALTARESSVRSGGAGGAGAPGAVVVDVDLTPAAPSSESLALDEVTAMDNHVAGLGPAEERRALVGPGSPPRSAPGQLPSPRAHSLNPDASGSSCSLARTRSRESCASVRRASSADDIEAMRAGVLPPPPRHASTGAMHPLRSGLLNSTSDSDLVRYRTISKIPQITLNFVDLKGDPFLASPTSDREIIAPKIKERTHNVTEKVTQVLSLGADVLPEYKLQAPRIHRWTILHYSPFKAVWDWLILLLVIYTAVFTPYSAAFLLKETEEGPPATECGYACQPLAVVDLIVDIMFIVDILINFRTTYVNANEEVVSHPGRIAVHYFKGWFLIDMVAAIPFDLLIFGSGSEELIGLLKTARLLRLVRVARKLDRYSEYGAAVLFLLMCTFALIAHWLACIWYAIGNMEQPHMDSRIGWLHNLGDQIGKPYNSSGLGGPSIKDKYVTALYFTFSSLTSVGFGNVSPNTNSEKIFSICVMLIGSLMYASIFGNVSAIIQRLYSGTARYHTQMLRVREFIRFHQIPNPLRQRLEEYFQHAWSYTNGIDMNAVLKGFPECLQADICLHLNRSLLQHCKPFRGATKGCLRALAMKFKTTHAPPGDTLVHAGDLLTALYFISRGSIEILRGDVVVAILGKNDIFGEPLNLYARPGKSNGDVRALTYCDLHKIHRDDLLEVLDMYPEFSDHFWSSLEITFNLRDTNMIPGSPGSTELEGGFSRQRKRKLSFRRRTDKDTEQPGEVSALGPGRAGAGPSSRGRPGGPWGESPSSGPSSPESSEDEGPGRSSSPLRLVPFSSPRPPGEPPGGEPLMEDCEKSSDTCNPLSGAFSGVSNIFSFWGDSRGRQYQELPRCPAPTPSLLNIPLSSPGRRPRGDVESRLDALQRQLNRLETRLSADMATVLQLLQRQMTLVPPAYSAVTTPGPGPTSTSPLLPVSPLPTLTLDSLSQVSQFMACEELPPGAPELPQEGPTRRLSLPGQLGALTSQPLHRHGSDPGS

Question: For `CCN[C@@H]1CCC=C(c2ccc(F)cc2)[C@H]1COc1cc(F)c(S(=O)(=O)Nc2cscn2)cc1Cl.Cl`, which fAUClast [1] is on record?
Answer: The fAUClast was 0.106 µM·h.

Question: What about the half-life [2] of the same compound?
Answer: The half-life was 1.56 h.

Question: What about the concentration at 4 h [3] of the same compound?
Answer: Its concentration at 4 h is 1530 nM.

Question: And the CLint scaled at 1 µM [4]?
Answer: The CLint scaled at 1 µM was 137 mL/min/kg.

Question: What about the IC50 [5] of the same compound?
Answer: The IC50 was greater than 10 µM.

Question: What about the AUC(0-t) [6] of the same compound?
Answer: Its AUC(0-t) is 3.04 µM·h.

Question: And the concentration at 2 h [7]?
Answer: The concentration at 2 h was 2160 nM.

Question: What about the IC50 [8] of the same compound?
Answer: Its IC50 is 43.4 µM.

Question: What about the concentration at 1 h [9] of the same compound?
Answer: The concentration at 1 h was 8480 nM.

Question: What about the “Cp(f)” value [10] of the same compound?
Answer: Its value is 262 nM.

Question: And the “Cp(f)” value [11]?
Answer: The value was 163 nM.

Question: And the “Cp(f)” value [12]?
Answer: The value was 75 nM.

Question: And the Tmax [13]?
Answer: The Tmax was 1.67 h.

Question: What about the AUC [14] of the same compound?
Answer: Its AUC is 3.04 µM·h.

Question: And the AUC(0-t) [15]?
Answer: The AUC(0-t) was 2.44 µM·h.

Question: What about the concentration at 1 h [16] of the same compound?
Answer: Its concentration at 1 h is 2010 nM.

Question: What about the clearance [17] of the same compound?
Answer: The clearance was 37 mL/min/kg.

Question: What about the remaining at 1 h, 10 µM [18] of the same compound?
Answer: Its remaining at 1 h, 10 µM is 81.2%.

Question: And the logD [19]?
Answer: Its logD is 1.79.

Question: And the Drug metabolism [20]?
Answer: Its Drug metabolism is 0.5 µM/g.

Question: What about the IC50 [21] of the same compound?
Answer: The IC50 was 0.034 µM.

Question: What about the CLint scaled at 1 µM [22] of the same compound?
Answer: Its CLint scaled at 1 µM is 66.9 mL/min/kg.

Question: And the remaining at 1 h, 10 µM [23]?
Answer: Its remaining at 1 h, 10 µM is 49.7%.

Question: What about the Drug metabolism [24] of the same compound?
Answer: Its Drug metabolism is “Metabolite_Detected”.

Question: And the clearance [25]?
Answer: The clearance was 37 mL/min/kg.

Question: What about the Drug metabolism [26] of the same compound?
Answer: Its Drug metabolism is “Metabolite_Detected”.

Question: And the IC50 [27]?
Answer: The IC50 was 4.4 µM.

Question: And the IC50 [28]?
Answer: The IC50 was greater than 50 µM.

Question: And the IC50 [29]?
Answer: The IC50 was 5.7 µM.

Question: And the IC50 [30]?
Answer: The IC50 was greater than 50 µM.

Question: What about the “Cp(f)” value [31] of the same compound?
Answer: Its value is 297 nM.

Question: What about the half-life [32] of the same compound?
Answer: The half-life was 2.56 h.

Question: What about the C0 [33] of the same compound?
Answer: The C0 was 1910 nM.

Question: What about the fraction unbound at 4 h, 2 µM [34] of the same compound?
Answer: Its fraction unbound at 4 h, 2 µM is 0.015.
